For this assay, the target named is T1, ZAP-70 (Homo sapiens, UniProt P43403).
T1 construct: endogenous in cells; host or cells: cell lysate
T1 sequence (P43403 1-619): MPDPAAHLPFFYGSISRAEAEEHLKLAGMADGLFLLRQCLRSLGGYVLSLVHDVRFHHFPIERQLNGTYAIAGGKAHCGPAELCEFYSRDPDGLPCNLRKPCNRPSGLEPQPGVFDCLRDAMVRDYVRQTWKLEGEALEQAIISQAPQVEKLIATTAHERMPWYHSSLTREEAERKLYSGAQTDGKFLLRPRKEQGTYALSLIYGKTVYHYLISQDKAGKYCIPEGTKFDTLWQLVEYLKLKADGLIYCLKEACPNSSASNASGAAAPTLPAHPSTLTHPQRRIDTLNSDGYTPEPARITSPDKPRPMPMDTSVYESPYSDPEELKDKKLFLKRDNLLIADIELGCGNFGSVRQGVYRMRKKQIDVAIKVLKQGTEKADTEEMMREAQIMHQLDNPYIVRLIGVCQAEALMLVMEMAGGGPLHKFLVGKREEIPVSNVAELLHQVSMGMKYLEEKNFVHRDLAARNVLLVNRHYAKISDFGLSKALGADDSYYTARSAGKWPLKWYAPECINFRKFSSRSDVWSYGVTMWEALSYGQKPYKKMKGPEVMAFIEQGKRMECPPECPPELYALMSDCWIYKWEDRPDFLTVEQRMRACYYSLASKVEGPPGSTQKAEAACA
The assay can be described thus: ZAP-70 kinobeads assay. Type of assay: binding. As to conditions: cell lysate. As to the method: The compounds of the present invention as described in the previous examples can be tested in the ZAP-70 kinobeads assay as described (EP-A 1862802 and WO-A 2007/137867). Briefly, test compounds (at various concentrations) and the affinity matrix with the immobilized aminopyrido-pyrimidine ligand 24 are added to cell lysate aliquots and allowed to bind to the proteins in the lysate sample. After the incubation time the beads with captured proteins are separated from the lysate. Bound proteins are then eluted and the presence ZAP-70 is detected and quantified using a specific antibody in a dot blot procedure and the Odyssey infrared detection system.

pIC50: −log10 of the molar value. Structures can show the parent of a compound that is named as a salt.

In turn, `COc1ccc(OCCO)cc1Nc1ncc(Cl)c(Nc2cccc(OC)c2NS(C)(=O)=O)n1` [Example 119, N-(2-(5-chloro-2-(5-(2-hydroxyethoxy)-2-methoxyphenylamino)pyrimidin-4-ylamino)-6-methoxyphenyl)methanesulfonamide] gave a pIC50 of 6.00 to 7.00.

Regarding `CS(=O)(=O)Nc1ccccc1Nc1nc(Nc2ccccc2Cl)ncc1Br` [Example 18, N-(2-(5-bromo-2-(2-chlorophenylamino)pyrimidin-4-ylamino)phenyl)methanesulfonamide hydrochloride], the pIC50 was 5.00 to 6.00.

`COc1ccc(Nc2nc(Nc3cccc(C)c3C)ncc2Cl)c(NS(C)(=O)=O)c1` [Example 52, N-(2-(5-chloro-2-(2,3-dimethylphenylamino)pyrimidin-4-ylamino)-5-methoxyphenyl)methanesulfonamide] gave a pIC50 of 6.00 to 7.00.

On to `COc1ccc(Nc2nc(Nc3ccc(C)cc3OC)ncc2Cl)c(NS(C)(=O)=O)c1` [Example 62, N-(2-(5-chloro-2-(2-methoxy-4-methylphenylamino)pyrimidin-4-ylamino)-5-methoxyphenyl)methanesulfonamide hydrochloride], for which the pIC50 was 6.00 to 7.00.

Regarding `COc1ccc(OCCO)cc1Nc1ncc(F)c(Nc2cccc(C)c2NS(C)(=O)=O)n1` [Example 103, N-(2-(5-fluoro-2-(5-(2-hydroxyethoxy)-2-methoxyphenylamino)pyrimidin-4-ylamino)-6-methylphenyl)methanesulfonamide], the pIC50 was 5.00 to 6.00.

`COc1ccc(Nc2nc(Nc3cc(OC)ccc3OC)ncc2F)c(NS(C)(=O)=O)c1` [Example 27, N-(2-(2-(2,5-dimethoxyphenylamino)-5-fluoropyrimidin-4-ylamino)-5-methoxyphenyl)methanesulfonamide] gave a pIC50 of 5.00 to 6.00.

The compound `COc1ccc(Nc2nc(Nc3ccccc3F)ncc2Cl)c(NS(C)(=O)=O)c1` [Example 48, N-(2-(5-chloro-2-(2-fluorophenylamino)pyrimidin-4-ylamino)-5-methoxyphenyl)methanesulfonamide] gave a pIC50 of 6.00 to 7.00.

Turning to `COc1ccc(Nc2nc(Nc3ccccc3OC)ncc2Cl)c(NS(C)(=O)=O)c1` [Example 51, N-(2-(5-chloro-2-(2-methoxyphenylamino)pyrimidin-4-ylamino)-5-methoxyphenyl)methanesulfonamide hydrochloride], the pIC50 is 6.00 to 7.00.

As to `COc1ccc(OCCO)cc1Nc1ncc(F)c(Nc2ccccc2NS(C)(=O)=O)n1` [Example 102, N-(2-(5-fluoro-2-(5-(2-hydroxyethoxy)-2-methoxyphenylamino)pyrimidin-4-ylamino)phenyl)methanesulfonamide], the pIC50 is 5.00 to 6.00.

In turn, `COc1cc(OC)c(OC)cc1Nc1ncc(Br)c(Nc2ccccc2NS(C)(=O)=O)n1` [Example 31, N-(2-(5-bromo-2-(2,4,5-trimethoxyphenylamino)pyrimidin-4-ylamino)phenyl)methanesulfonamide] showed a pIC50 of 6.00 to 7.00.

Take `COc1ccc(OC)c(Nc2ncc(F)c(Nc3ccccc3NS(C)(=O)=O)n2)c1` [Example 15, N-(2-(2-(2,5-dimethoxyphenylamino)-5-fluoropyrimidin-4-ylamino)phenyl)methanesulfonamide]: the negative logarithm of the IC50 (pIC50) is 5.00 to 6.00.

Take `COc1ccc(Nc2ncc(F)c(Nc3ccccc3NS(C)(=O)=O)n2)c(OC)c1` [Example 14, N-(2-(2-(2,4-dimethoxyphenylamino)-5-fluoropyrimidin-4-ylamino)phenyl)methanesulfonamide]: the pIC50 is 5.00 to 6.00.

`COc1ccc(Nc2nc(Nc3cc(OC)ccc3OC)ncc2Cl)c(NS(C)(=O)=O)c1` [Example 22, N-(2-(5-chloro-2-(2,5-dimethoxyphenylamino)pyrimidin-4-ylamino)-5-methoxyphenyl)methanesulfonamide] gave a pIC50 of 6.00 to 7.00.

`COc1ccc(Nc2nc(Nc3cc(F)c(OC)cc3OC)ncc2Cl)c(NS(C)(=O)=O)c1` [Example 38, N-(2-(5-chloro-2-(5-fluoro-2,4-dimethoxyphenylamino)pyrimidin-4-ylamino)-5-methoxyphenyl)methanesulfonamide hydrochloride] had a pIC50 of 6.00 to 7.00.

Turning to `COc1ccc(Nc2ncc(Cl)c(Nc3ccc(OC)cc3NS(C)(=O)=O)n2)c(F)c1` [Example 33, N-(2-(5-chloro-2-(2-fluoro-4-methoxyphenylamino)pyrimidin-4-ylamino)-5-methoxyphenyl)methanesulfonamide], the pIC50 was 6.00 to 7.00.

The compound `COc1ccc(Nc2nc(Nc3cc(OC)ccc3OC)ncc2Br)c(NS(C)(=O)=O)c1` [Example 23, N-(2-(5-bromo-2-(2,5-dimethoxyphenylamino)pyrimidin-4-ylamino)-5-methoxyphenyl)methanesulfonamide] had a pIC50 of 6.00 to 7.00.

`COc1ccc(Nc2nc(Nc3ccc(C)cc3C)ncc2Cl)c(NS(C)(=O)=O)c1` [Example 59, N-(2-(5-chloro-2-(2,4-dimethylphenylamino)pyrimidin-4-ylamino)-5-methoxyphenyl)methanesulfonamide hydrochloride] gave a pIC50 of 6.00 to 7.00.

In the case of `COc1ccc(Nc2ncc(Br)c(Nc3ccccc3NS(C)(=O)=O)n2)c(OC)c1` [Example 26, N-(2-(5-bromo-2-(2,4-dimethoxyphenylamino)pyrimidin-4-ylamino)phenyl)methanesulfonamide], the pIC50 was 6.00 to 7.00.

Take `COc1ccc(Nc2nc(Nc3cc(C)c(OC)cc3OC)ncc2Cl)c(NS(C)(=O)=O)c1` [Example 39, N-(2-(5-chloro-2-(2,4-dimethoxy-5-methylphenylamino)pyrimidin-4-ylamino)-5-methoxyphenyl)methanesulfonamide]: the negative-log IC50 (pIC50) is 6.00 to 7.00.

Compound `COc1ccc(Nc2nc(Nc3ccc(OC)cc3OC)ncc2Cl)c(NS(C)(=O)=O)c1` [Example 34, N-(2-(5-chloro-2-(2,4-dimethoxyphenylamino)pyrimidin-4-ylamino)-5-methoxyphenyl)methanesulfonamide] showed a pIC50 of 6.00 to 7.00.

The compound `COc1ccc(Nc2nc(Nc3cc4c(cc3OC)OCCO4)ncc2Cl)c(NS(C)(=O)=O)c1` [Example 40, N-(2-(5-chloro-2-(7-methoxy-2,3-dihydrobenzo[b][1,4]dioxin-6-ylamino)pyrimidin-4-ylamino)-5-methoxyphenyl)methanesulfonamide] gave a pIC50 of 6.00 to 7.00.

`COc1ccc(Nc2nc(Nc3cccc(F)c3OC)ncc2Cl)c(NS(C)(=O)=O)c1` [Example 61, N-(2-(5-chloro-2-(3-fluoro-2-methoxyphenylamino)pyrimidin-4-ylamino)-5-methoxyphenyl)methanesulfonamide hydrochloride] showed a negative-log IC50 (pIC50) of 5.00 to 6.00.

As for `COc1ccc(Nc2nc(Nc3cncc(OC)c3OC)ncc2Cl)c(NS(C)(=O)=O)c1` [Example 81, N-(2-(5-chloro-2-(4,5-dimethoxypyridin-3-ylamino)pyrimidin-4-ylamino)-5-methoxyphenyl)methanesulfonamide], the pIC50 was 5.00 to 6.00.

In turn, `COc1ccc(Nc2nc(Nc3cc(C)ccc3OC)ncc2Cl)c(NS(C)(=O)=O)c1` [Example 56, N-(2-(5-chloro-2-(2-methoxy-5-methylphenylamino)pyrimidin-4-ylamino)-5-methoxyphenyl)methanesulfonamide] showed a pIC50 of 6.00 to 7.00.

Compound `COc1ccc(Nc2nc(Nc3ccc(OC)nc3OC)ncc2Cl)c(NS(C)(=O)=O)c1` [Example 36, N-(2-(5-chloro-2-(2,6-dimethoxypyridin-3-ylamino)pyrimidin-4-ylamino)-5-methoxyphenyl)methanesulfonamide] gave a pIC50 of 6.00 to 7.00.
